This note sets out measurements from patent US20180291335A1, “MODIFIED POLYNUCLEOTIDES FOR ALTERING CELL PHENOTYPE” (ModernaTX, Inc., priority 2012, published 2018).

One data set concerns rabbit reticulysates. The data set can be described thus: G-CSF modified mRNA in rabbit reticulysates, G-CSF ELISA. In kind it is biochemical. Conditions: 250 ng of modified mRNA. As to the method:
(§1) To assess the activity of all our different chemical modifications in the context of a second open reading frame, we replicated experiments previously conducted using luciferase mRNA, with human G-CSF mRNA. […] The mutant T7 polymerase was obtained commercially (Durascribe® T7 Transcription kit (Cat. No. DS010925) (Epicentre®, Madison, Wis.).
(§2) The modified RNA in Tables 27 and 28 were transfected in vitro in HeLa cells or added to rabbit reticulysates (250 ng of modified mRNA) as indicated. […] In Table 27, “NT” means not tested.
In general terms: In an ELISA, binding on a coated surface is turned into a signal by an enzyme label.

In data set [1] the test system is HeLa cells. In words: In vitro screening in HeLa cells, luciferase modified RNA. In kind it is cell-based, human. Also on record: key to Protein (Luc; HeLa): the protein production of HeLa is judged by “+,” “+1-” and “−”; the protein production of HeLa is judged by “+,” “+1-” and “−”; the protein production of HeLa is judged by “+,” “+1-” and “−”. Conditions: for RLU: HeLa cells, 83 ng luciferase modified RNA, 18 to 22 hours. The protocol:
The day before transfection, 20,000 HeLa cells (ATCC no. CCL-2; Manassas, Va.) were harvested by treatment with Trypsin-EDTA solution (LifeTechnologies, Grand Island, N.Y.) and seeded in a total volume of 100 ul EMEM medium (supplemented with 10% FCS and 1× Glutamax) per well in a 96-well cell culture plate (Corning, Manassas, Va.). The cells were grown at […] in 5% CO2 atmosphere overnight. […] Lipofectamine 2000 (LifeTechnologies, Grand Island, N.Y.) was used as transfection reagent and 0.2 ul were diluted in 10 ul final volume of OPTI-MEM. After 5 minutes of incubation at room temperature, both solutions were combined and incubated an additional 15 minute at room temperature. Then the 20 ul combined solution was added to the 100 ul cell culture medium containing the HeLa cells and incubated at room temperature.
After 18 to 22 hours of incubation cells expressing luciferase were lysed with 100 ul of Passive Lysis Buffer (Promega, Madison, Wis.) according to manufacturer instructions. Aliquots of the lysates were transferred to white opaque polystyrene 96-well plates (Corning, Manassas, Va.) and combined with 100 ul complete luciferase assay solution (Promega, Madison, Wis.). The lysate volumes were adjusted or diluted until no more than 2 mio relative light units (RLU) per well were detected for the strongest signal producing samples and the RLUs for each chemistry tested are shown in Table 19. The plate reader was a BioTek Synergy H1 (BioTek, Winooski, Vt.). The background signal of the plates without reagent was about 200 relative light units per well.

In data set [2] the test system is Rabbit Reticulocyte Lysate. In words: In vitro screening in rabbit reticulocyte lysates, luciferase mRNA translation. In kind it is biochemical. Conditions: 250 ng luciferase mRNA, 60 minutes, 30° C. The protocol: The diluted luciferase was added to 40 ul of freshly prepared Rabbit Reticulocyte Lysate and the in vitro translation reaction was done in a standard 1.5 mL polypropylene reaction tube (Thermo Fisher Scientific, Waltham, Mass.) at 30° C. in a dry heating block. The translation assay was done with the Rabbit Reticulocyte Lysate (nuclease-treated) kit (Promega, Madison, Wis.) according to the manufacturer's instructions. The reaction buffer was supplemented with a one-to-one blend of provided amino acid stock solutions devoid of either Leucine or Methionine resulting in a reaction mix containing sufficient amounts of both amino acids to allow effective in vitro translation.
After 60 minutes of incubation, the reaction was stopped by placing the reaction tubes on ice. Aliquots of the in vitro translation reaction containing luciferase modified RNA were transferred to white opaque polystyrene 96-well plates (Corning, Manassas, Va.) and combined with 100 ul complete luciferase assay solution (Promega, Madison, Wis.). The volumes of the in vitro translation reactions were adjusted or diluted until no more than 2 mio relative light units (RLUs) per well were detected for the strongest signal producing samples and the RLUs for each chemistry tested are shown in Table 20. The plate reader was a BioTek Synergy H1 (BioTek, Winooski, Vt.). The background signal of the plates without reagent was about 200 relative light units per well.

The subject of data set [3] is HeLa cells. In words: G-CSF modified mRNA transfected in HeLa cells, G-CSF ELISA. In kind it is cell-based, human. Also noted: key to Protein (G-CSF; HeLa): the protein production of HeLa is judged by “+,” “+1-” and “−”; the protein production of HeLa is judged by “+,” “+1-” and “−”; the protein production of HeLa is judged by “+,” “+1-” and “−”. Conditions: Table 30, non-naturally occurring chemistries; G-CSF modified mRNA in HeLa. The protocol:
as §1, §2

A further data set has as its system interferon-alpha (IFN-α). In words: In vitro screening in PBMC: interferon-alpha induction by ELISA. In kind it is cell-based, human. Conditions: Table 30, non-naturally occurring chemistries; IFN-alpha from G-CSF modified mRNA in PBMC; background about 70 pg/ml. The method in brief: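 Cells' supernatant is taken off and frozen. Cytokine and G-CSF output is then determined by enzyme-linked immunosorbent assay.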

Data set [4] has as its system peripheral blood mononuclear cells (PBMC). In words: In vitro screening in PBMC: G-CSF protein expression by ELISA. In kind it is cell-based, human. Conditions: Table 30, non-naturally occurring chemistries; G-CSF modified mRNA in PBMC; background about 110 pg/ml. From the text:
The supernatant was harvested and stored frozen until analyzed by ELISA to determine the G-CSF protein expression, and the induction of the cytokines interferon-alpha (IFN-α) and tumor necrosis factor alpha (TNF-α).

Regarding “Luciferase control: luciferase control mRNA (SEQ ID NO: 409) fully modified with 5-methylcytosine and N1-methylpseudouridine [reference compound]”, the “G-CSF protein (pg/ml) Rabbit reticulysates cells” value with rabbit reticulysates came out at 0 pg/mL.

“5 (2 carbovinyl) uridine: Luciferase mRNA (SEQ ID NO: 409) modified with 5 (2 carbovinyl) uridine”: the RLU is listed as 531 RLU in the data set on HeLa cells [1] and 225 RLU in data set [2].

Take “N6-methyladenosine (m6a): Luciferase mRNA (SEQ ID NO: 409) modified with N6-methyladenosine”: the RLU in the data set on HeLa cells [1] is 534 RLU; in data set [2], 398 RLU.

Turning to 5-Br-Uridine [Compound 5-Br-Uridine], the “Protein (G-CSF; HeLa)” value with HeLa cells [3] is “+”. Also, in the data set on interferon-alpha (IFN-α), the “Cytokines (G-CSF; PBMC)” value is on record as “+ (“+” means greater than 100 pg/ml IFN-alpha)”. In addition, the “Protein (G-CSF; PBMC)” value in data set [4] is given as “+ (“+” means greater than 300 pg/ml G-CSF)”. Moreover, the “Protein (Luc; HeLa)” value in the data set on HeLa cells [1] (Table 30, non-naturally occurring chemistries, luciferase modified mRNA in HeLa, ** = second result, IVT with mutant T7 polymerase) is on record as “+”.

“N4-acetylcytidine (ac4c): Luciferase mRNA (SEQ ID NO: 409) modified with N4-acetylcytidine”: the RLU was 235,412 RLU in the data set with HeLa cells [1] and 60,879 RLU in data set [2].

Consider “5 (3-1E propenyl Amino) uridine: Luciferase mRNA (SEQ ID NO: 409) modified with 5 (3-1E propenyl Amino) uridine”, for which the RLU with HeLa cells [1] worked out at 446 RLU; in data set [2], 211 RLU.

On to “5-methylcytidine (m5c): Luciferase mRNA (SEQ ID NO: 409) modified with 5-methylcytidine”, for which the figures for the RLU (with HeLa cells [1]; in data set [2]) were 138,428 RLU and 152,989 RLU, respectively.
